In assay [1] the test system is Staphylococcus aureus. In words: Antimicrobial activity against Staphylococcus aureus by XTT assay. It counts as functional.
Assay [2] concerns Influenza A virus. In words: Antiviral activity against Influenza A virus (A/Puerto Rico/8/34(H1N1)) infected in MDCK cells assessed as protection against virus-induced cytopathogenicity after 48 hrs by crystal-violet staining-based assay. It counts as functional, organism-based. The settings on record: A/Puerto Rico/8/1934(H1N1). For orientation: Cytopathic effects are the visible damage that an infection or toxin causes in cultured cells.

Values after ≈ are worked out from the molar mass of the structure shown.

A word on the MIC: it is the least concentration at which growth counts as inhibited. Low values mean a more susceptible organism, high ones a less susceptible organism. Compound `CN[C@@H]1[C@@H](O)[C@@H](O[C@@H]2[C@@H](O)[C@H](O[C@H]3O[C@H](CN)CC[C@H]3N)[C@@H](N)C[C@H]2N)OC[C@]1(C)O.O=S(=O)(O)O` returned an MIC in assay [1] of 4 µg/mL.

Broadly, the IC50 is the concentration that inhibits the measured activity by half. In the case of `CC(=O)O[C@@H]1c2c3c(cc(O)c2C(=O)O[C@@H]1C)O[C@@]1(C)[C@@H](O)C[C@H]2C(C)(C)C(=O)CC[C@]2(C)[C@@H]1C3`, the IC50 in assay [2] is 58 µM.

Turning to `C[C@@H]1Cc2c3c(c(Cl)c(O)c2C(=O)O1)O[C@@]1(C)[C@@H](O)C[C@H]2C(C)(C)C(=O)C=C[C@]2(C)[C@@H]1C3`, the IC50 in assay [2] came out at 74 µM.

Compound `C/C(=C\Cc1c(O)cc(O)c2c1C[C@@H](C)OC2=O)CCC(O)[C@@]1(C)CC[C@@H](C(C)(C)O)O1` (stereo partly specified) gave an MIC in assay [1] of 32 µg/mL (≈ 71.3 µM).

Turning to `C[C@@H]1Cc2c3c(cc(O)c2C(=O)O1)O[C@@]1(C)CC[C@H]2C(C)(C)C(=O)CC[C@]2(C)[C@@H]1C3`, in assay [2], the IC50 was found to be 34 µM.

`NC(=O)c1ncn([C@@H]2O[C@H](CO)[C@@H](O)[C@H]2O)n1` [RIBAVIRIN]: the IC50 in assay [2] was 103 µM.
